Assay results published in patent publication US5859027A, “Antimicrobial agent” (ChekTec Corporation, priority 1997, dated 1999).
≈ marks a conversion by molar mass, not a printed value.

Legend:
[1] = tested on: Fungal cells; experiment: Disk diffusion assay for antimicrobial activity (Example 2), zone of growth inhibition; type: cell-based
Method: Fungal cells were grown overnight from a single colony in 2-5 ml Sabouraud Dextrose Broth at 37° C. 1-5×10^6 were spread onto Sabouraud Dextrose Agar plates (Difco, Detroit, Mich.). Sterile 6 mm filter disks were evenly spaced with at least about 22 mm separation on the plates. To each disk, 100 μg of a compound to be tested was applied in 5-10 μl DMSO. On each plate, two disks containing 2.5 and 10 μg, respectively, of Amphotericin B (Sigma) and two disks containing 2.5 and 10 μg, respectively, of cerulenin (Sigma) were used as positive controls. A disk containing only DMSO served as the negative control. The plates were incubated at 37° C. for 24 hours and the zone of growth inhibition about each disk was visually examined and measured. Compound A and compound B typically produced clear zones of 8-12 mm diameter. Amphotericin B typically produced a clear zone of 8-10 mm diameter. Cerulenin typically produced a hazy zone of 20-25 mm diameter. A clear zone is indicative of fungicidal activity, while a hazy zone is indicative of fungistatic activity.

[2] = tested on: Candida Albicans strain B311A; experiment: MIC assay (Example 1B); type: cell-based; conditions: for MIC: Candida albicans
Method: The fractions from the purification were tested for antifungal activity against C. albicans (strain B311A available from Dr. Paul Actor, Temple University and strains ATCC Nos. 10231 and 10261) and C. tropicalis (strain 13803). […] Prior to the assay for antifungal activity, the fungus to be tested for susceptibility was grown overnight from a single colony in 5 ml of medium at 30° C. This overnight culture was diluted 1:10 with fresh medium and grown at 37° C. for 4 hours. A volume of 5 μl of extracts, dissolved in DMSO, was added to each separate well in a series of 96-well plates. 4,000 fungal cells were then added to each plate in 95 μl of medium. The optical densities of the wells were measured and the plates incubated at 37° C. The optical densities were again measured after 24 and 48 hours. Minimum inhibitory concentrations ("MICs") for the extracts were determined using this procedure wherein the extracts were serially diluted in medium prior to mixing with the 4,000 fungal cells.

[3] = Maximal tolerated dose in mice, IP administration; conditions: mouse, in vivo, read-out: maximal tolerated dose (maximum dose that caused no deaths within 72 hours)
Method: (§1) In vivo activity was determined using a murine systemic model of candidiasis. Groups of 5 to 10 mice were inoculated IV with 1-2×10^7 cells of C. albicans strain ATCC 10231 (10 times the lethal dose). One hour after inoculation, the candidate antifungal compounds were delivered IP. 10 mg/kg of compound A was injected into each mouse of the compound A treatment group. Two separate treatment groups received 30 and 100 mg/kg, respectively, of compound B. Amphotericin B was injected into a positive control treatment group at 10 mg/kg. All compounds were delivered in phosphate-buffered saline (PBS) and one treatment group received PBS. Twice daily thereafter the mice were observed, the number of dead mice recorded, and the dead mice removed. After nine days, the total mortality over the period was determined.
Using the same methodology, it was determined that the maximal tolerated dose in these mice (i.e., the maximum dose that caused no deaths within 72 hours following IP administration) of compound B was in excess of 200 mg/kg. The mice treated with 2108B or Amphotericin B injected IP in […] of phosphate buffered saline, pH 7.4 had the following treatment profiles: […]

[4] = tested on: C. albicans strain ATCC 10231; experiment: Murine systemic model of candidiasis; type: in vivo, mice; conditions: for % Survival: after nine days
Method: as §1

SMILES: C/C=C/C=C/C=C/C1=CC2=CC(=O)C(C)(OC(=O)CC(C)O)C(=O)C2=CO1 (stereo not shown) [Compound B]
- zone of inhibition at 100 µg/disc ([1]; 100 μg per 6 mm disk, 37° C., 24 hours, read-out: zone of growth inhibition, diameter): 8 to 12 mm
- zone appearance (clear = fungicidal, hazy = fungistatic) ([1]; 100 μg per disk): clear zones
- MIC ([2]; Sabouraud Dextrose Broth substituted for YNB medium): 50 µg/mL (≈ 135 µM)
- MIC ([2]; YNB medium): 6.25 µg/mL (≈ 16.9 µM)
- activity in the MIC assay of Example 1B (in words) ([2]; HPLC-purified material, strain not stated): retained activity
- MTD at 72 h [3]: > 200 mg/kg
- Deaths Each Day Post Inoculation, day 0 ([4]; 30 mg/kg IP): 0
- Deaths Each Day Post Inoculation, day 1 ([4]; 30 mg/kg IP): 2
- Deaths Each Day Post Inoculation, day 2 ([4]; 30 mg/kg IP): 1
- Deaths Each Day Post Inoculation, day 3 ([4]; 30 mg/kg IP): 0
- Deaths Each Day Post Inoculation, day 4 ([4]; 30 mg/kg IP): 0
- Deaths Each Day Post Inoculation, day 5 ([4]; 30 mg/kg IP): 0
- Deaths Each Day Post Inoculation, day 6 ([4]; 30 mg/kg IP): 0
- Deaths Each Day Post Inoculation, day 7 ([4]; 30 mg/kg IP): 0
- Deaths Each Day Post Inoculation, day 8 ([4]; 30 mg/kg IP): 0
- Deaths Each Day Post Inoculation, day 9 ([4]; 30 mg/kg IP): 0
- % Survival ([4]; 30 mg/kg IP one hour after inoculation): 40%
- Deaths Each Day Post Inoculation, day 0 ([4]; 100 mg/kg IP): 0
- Deaths Each Day Post Inoculation, day 1 ([4]; 100 mg/kg IP): 2
- Deaths Each Day Post Inoculation, day 2 ([4]; 100 mg/kg IP): 0
- Deaths Each Day Post Inoculation, day 3 ([4]; 100 mg/kg IP): 0
- Deaths Each Day Post Inoculation, day 4 ([4]; 100 mg/kg IP): 0
- Deaths Each Day Post Inoculation, day 5 ([4]; 100 mg/kg IP): 0
- Deaths Each Day Post Inoculation, day 6 ([4]; 100 mg/kg IP): 0
- Deaths Each Day Post Inoculation, day 7 ([4]; 100 mg/kg IP): 0
- Deaths Each Day Post Inoculation, day 8 ([4]; 100 mg/kg IP): 1
- Deaths Each Day Post Inoculation, day 9 ([4]; 100 mg/kg IP): 0
- % Survival ([4]; 100 mg/kg IP one hour after inoculation): 40%
